Read-outs that look alike come from different tables or passages of the source. Each block holds one compound with its values, some of them ahead of it.
Columns and labels:
[1] = molecular target: T1, His-ZZ-DYRK1B kinase domain (DYRK1B protein) (Homo sapiens, UniProt Q9Y463); details: read-out: DYRK1B Transient heating; with transient heating (20 sec); inhibitor
[2] = molecular target: T1, His-ZZ-DYRK1B kinase domain (DYRK1B protein); details: read-out: DYRK1B –; without transient heating; inhibitor
[3] = molecular target: T1, His-ZZ-DYRK1B kinase domain (DYRK1B protein); details: read-out: DYRK1B –; inhibitor
[4] = molecular target: T1, His-ZZ-DYRK1B kinase domain (DYRK1B protein); details: read-out: DYRK1B Transient heating; inhibitor
[5] = molecular target: T1, His-ZZ-DYRK1B kinase domain (DYRK1B protein); assay: biochemical; details: read-out: kon
[6] = molecular target: T1, His-ZZ-DYRK1B kinase domain (DYRK1B protein); assay: biochemical; details: read-out: koff
[7] = molecular target: T2, His-ZZ-DYRK1A kinase domain (DYRK1A protein) (Homo sapiens, UniProt Q13627); assay: luminescent kinase assay after transient heating; type: biochemical
[8] = molecular target: T2, His-ZZ-DYRK1A kinase domain (DYRK1A protein); assay: biochemical; details: read-out: kon
[9] = molecular target: T2, His-ZZ-DYRK1A kinase domain (DYRK1A protein); assay: biochemical; details: read-out: koff
[10] = molecular target: T1, His-ZZ-DYRK1B kinase domain (DYRK1B protein); assay: luminescent kinase assay after transient heating; type: biochemical; details: […] °C […] sec heating with compound, then ATP […], DYRKtide […], pH […]
[11] = molecular target: T2, His-ZZ-DYRK1A kinase domain (DYRK1A protein); details: read-out: DYRK1A Transient heating; with transient heating (20 sec); inhibitor
[12] = molecular target: T2, His-ZZ-DYRK1A kinase domain (DYRK1A protein); details: read-out: DYRK1A –; without transient heating; inhibitor

SMILES: COc1ccc(/C=C2\SC(=S)NC2=O)cc1C#C[Si](c1ccccc1)(c1ccccc1)c1ccccc1 [tp-FINDY]
IC50 [1]: 5.8 µM
IC50 [2]: > 32 µM

SMILES: COc1ccc(/C=C2\SC(=S)NC2=O)cc1C#C[Si](C)(c1ccccc1)c1ccccc1 [compound 2, dp-FINDY]
kon [5]: 200 M⁻¹ s⁻¹
IC50 [3]: > 32 µM
koff [6]: 0.00012 s⁻¹
IC50 [7]: 2.6 µM
IC50 [4]: 2.5 µM
kon [8]: 0.28 M⁻¹ s⁻¹
koff [9]: 2.2e-07 s⁻¹

SMILES: COc1ccc(/C=C2\SC(=S)NC2=O)cc1/C=C/C1CCCCC1 [dscy-dFINDY]
IC50 [11]: 4.1 µM
IC50 [12]: > 32 µM

SMILES: COc1ccc(/C=C2\NC(=S)NC2=O)cc1C#C[Si](C)(c1ccccc1)c1ccccc1 [compound 4, RD1408]
IC50 [4]: 14 µM

SMILES: COc1ccc(/C=C2\SC(=S)NC2=O)cc1C#C[Si]([Si](C)(C)C)([Si](C)(C)C)[Si](C)(C)C [ts-FINDY]
IC50 [1]: 4.6 µM
IC50 [2]: > 32 µM

Now from value to compound:

IC50 [3]: 23 µM
IC50 [4]: 23 µM
SMILES: C#Cc1cc(/C=C2\SC(=S)NC2=O)ccc1O [compound 12, RD0562]

IC50 [3]: 52 µM
IC50 [10]: 16 µM
IC50 [7]: 38 µM
SMILES: C#Cc1cc(/C=C2\SC(=S)NC2=O)ccc1OC [compound 11, RD0448]

IC50 [3]: 9.7 µM
IC50 [4]: 17 µM
SMILES: COc1ccc(/C=C2\SC(=S)NC2=O)cc1 [compound 13, RD1486]

IC50 [11]: > 32 µM
IC50 [12]: > 32 µM
IC50 [1]: 7.4 µM
SMILES: COc1ccc(/C=C2\SC(=S)NC2=O)cc1/C=C/C(C)(C)C [dstb-dFINDY]

IC50 [3]: 3.6 µM
IC50 [4]: 3.5 µM
SMILES: CCOc1cc(/C=C2\SC(=S)NC2=O)ccc1O [compound 5, RD0392]

IC50 [11]: 4.9 µM
IC50 [12]: > 32 µM
SMILES: COc1ccc(/C=C2\SC(=S)NC2=O)cc1/C=C/[Si](C)(C)C [dFINDY]

Source: publication doi:10.1101/2025.01.15.632643v1 (biorxiv, 2025)
